The assay addresses human Gal-3 (hGal-3) (Homo sapiens (Human), UniProt P17931). The experiment in a line: competitive binding assay: binding of biotinylated hGal-3 to microplate-adsorbed asialofetuin (ASF), spectrophotometric. To be noted: Activity on hGal-3; mean values of several measurements. The method in brief: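 Compounds diluted in DMSO competed with biotinylated hGal-3 or hGal-1 (300-1000 ng/mL) for binding to plate-adsorbed asialofetuin for 3 h at 4° C. Bound galectin was detected with streptavidin-peroxidase (80 ng/mL, 1 h, 4° C) and ABTS substrate; IC50 reported as mean of several measurements.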
Sequence of human Gal-3 (hGal-3) (P17931 whole entry): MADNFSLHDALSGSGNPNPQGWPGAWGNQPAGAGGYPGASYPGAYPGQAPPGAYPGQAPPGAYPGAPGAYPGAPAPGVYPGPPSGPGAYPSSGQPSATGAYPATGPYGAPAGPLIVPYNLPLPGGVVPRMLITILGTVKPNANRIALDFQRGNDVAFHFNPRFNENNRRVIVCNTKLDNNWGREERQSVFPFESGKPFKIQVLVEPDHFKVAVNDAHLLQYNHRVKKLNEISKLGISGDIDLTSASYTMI
The term IC50 denotes the point on the concentration scale where inhibition reaches its midpoint. High values mean weaker potency, low ones greater potency. As to `CO[C@@H]1[C@@H](n2cc(-c3ccc(C)c(F)c3F)nn2)[C@@H](O)[C@@H](CO)O[C@H]1C(=O)N(c1cc(Br)cc(C#N)c1)[C@H]1CC[C@@H]1O` [Example 2.11.5, (2R,3R,4S,5R,6R)-N-(3-bromo-5-cyanophenyl)-4-(4-(2,3-difluoro-4-methylphenyl)-1H-1,2,3-triazol-1-yl)-5-hydroxy-N-((1S,2S)-2-hydroxycyclobutyl)-6-(hydroxymethyl)-3-methoxytetrahydro-2H-pyran-2-carboxamide], the IC50 came out at 0.0171 µM.

`COc1cc(-c2cn([C@H]3[C@@H](O)[C@@H](CO)O[C@@H](C(=O)N(c4cc(Br)cc(C#N)c4)[C@H]4CCC[C@@H]4O)[C@@H]3OC)nn2)cc(F)c1F` [Example 1.3.5, (2R,3R,4S,5R,6R)-N-(3-bromo-5-cyanophenyl)-4-(4-(3,4-difluoro-5-methoxyphenyl)-1H-1,2,3-triazol-1-yl)-5-hydroxy-N-((1S,2S)-2-hydroxycyclopentyl)-6-(hydroxymethyl)-3-methoxytetrahydro-2H-pyran-2-carboxamide]: the IC50 was determined as 0.0254 µM.

Consider `COc1cc(-c2cn([C@H]3[C@@H](O)[C@@H](CO)O[C@@H](C(=O)N(c4cc(Cl)cc(Cl)c4)[C@H]4CC[C@@H]4O)[C@@H]3OC)nn2)cc(F)c1F` [Example 2.3.2, (2R,3R,4S,5R,6R)-N-(3,5-dichlorophenyl)-4-(4-(3,4-difluoro-5-methoxyphenyl)-1H-1,2,3-triazol-1-yl)-5-hydroxy-N-((1S,2S)-2-hydroxycyclobutyl)-6-(hydroxymethyl)-3-methoxytetrahydro-2H-pyran-2-carboxamide], for which the IC50 was 0.0678 µM.

On to `CO[C@@H]1[C@@H](n2cc(-c3ccc(Br)c(F)c3F)nn2)[C@@H](O)[C@@H](CO)O[C@H]1C(=O)N(c1cc(Cl)cc(Cl)c1)[C@H]1CC[C@@H]1O` [Example 2.12.2, (2R,3R,4S,5R,6R)-4-(4-(4-bromo-2,3-difluorophenyl)-1H-1,2,3-triazol-1-yl)-N-(3,5-dichlorophenyl)-5-hydroxy-N-((1S,2S)-2-hydroxycyclobutyl)-6-(hydroxymethyl)-3-methoxytetrahydro-2H-pyran-2-carboxamide], for which the IC50 was determined as 0.18 µM.

`CO[C@@H]1[C@@H](n2cc(-c3cc(F)cc(Br)c3)nn2)[C@@H](O)[C@@H](CO)O[C@H]1C(=O)N(c1cc(Cl)cc(C#N)c1)[C@@H]1CCC[C@H]1O` [Example 1.10.4R, (2R,3R,4S,5R,6R)-4-(4-(3-bromo-5-fluorophenyl)-1H-1,2,3-triazol-1-yl)-N-(3-chloro-5-cyanophenyl)-5-hydroxy-N-((1R,2R)-2-hydroxycyclopentyl)-6-(hydroxymethyl)-3-methoxytetrahydro-2H-pyran-2-carboxamide] gave an IC50 of 0.699 µM.

For the compound `CO[C@@H]1[C@@H](n2cc(-c3ccc(C)c(F)c3F)nn2)[C@@H](O)[C@@H](CO)O[C@H]1C(=O)N(c1cc(Cl)cc(C#N)c1)[C@H]1CCC[C@@H]1O` [Example 1.11.4, (2R,3R,4S,5R,6R)-N-(3-chloro-5-cyanophenyl)-4-(4-(2,3-difluoro-4-methylphenyl)-1H-1,2,3-triazol-1-yl)-5-hydroxy-N-((1S,2S)-2-hydroxycyclopentyl)-6-(hydroxymethyl)-3-methoxytetrahydro-2H-pyran-2-carboxamide], the IC50 is 0.0219 µM.

With `N#Cc1cc(Cl)cc(N(C(=O)[C@@H]2O[C@H](CO)[C@H](O)[C@H](n3cc(-c4cc(F)c(F)c(F)c4)nn3)[C@H]2O)[C@H]2CCC[C@@H]2O)c1` [Example 1H.1.4, (2R,3R,4S,5R,6R)-N-(3-chloro-5-cyanophenyl)-3,5-dihydroxy-N-((1S,2S)-2-hydroxycyclopentyl)-6-(hydroxymethyl)-4-(4-(3,4,5-trifluorophenyl)-1H-1,2,3-triazol-1-yl)tetrahydro-2H-pyran-2-carboxamide], the IC50 amounted to 0.0289 µM.

The values are drawn from patent publication US20230348442A1, “GALECTIN-3 INHIBITING 2-HYDROXYCYCLOALKANE-1-CARBAMOYL DERIVATIVES” (Idorsia Pharmaceuticals Ltd, priority 2020, published 2023).
